Test results: article PMC4370192, “Discovery of Specific Inhibitors for Intestinal E. coli β-Glucuronidase through In Silico Virtual Screening” (The Scientific World Journal, 2015)

Legend:
human βG (hβG) = molecular target: T1, human βG (hβG) (Homo sapiens, UniProt P08236); experiment: In vitro βG-activity assay (pNPG hydrolysis), hβG; format: biochemical; conditions: pH 5.4, percent of activity vs untreated control
T1 construct: histidine tag (N); made in house; host or cells: E. coli BL21 (DE3)
T1 sequence (P08236 23-651): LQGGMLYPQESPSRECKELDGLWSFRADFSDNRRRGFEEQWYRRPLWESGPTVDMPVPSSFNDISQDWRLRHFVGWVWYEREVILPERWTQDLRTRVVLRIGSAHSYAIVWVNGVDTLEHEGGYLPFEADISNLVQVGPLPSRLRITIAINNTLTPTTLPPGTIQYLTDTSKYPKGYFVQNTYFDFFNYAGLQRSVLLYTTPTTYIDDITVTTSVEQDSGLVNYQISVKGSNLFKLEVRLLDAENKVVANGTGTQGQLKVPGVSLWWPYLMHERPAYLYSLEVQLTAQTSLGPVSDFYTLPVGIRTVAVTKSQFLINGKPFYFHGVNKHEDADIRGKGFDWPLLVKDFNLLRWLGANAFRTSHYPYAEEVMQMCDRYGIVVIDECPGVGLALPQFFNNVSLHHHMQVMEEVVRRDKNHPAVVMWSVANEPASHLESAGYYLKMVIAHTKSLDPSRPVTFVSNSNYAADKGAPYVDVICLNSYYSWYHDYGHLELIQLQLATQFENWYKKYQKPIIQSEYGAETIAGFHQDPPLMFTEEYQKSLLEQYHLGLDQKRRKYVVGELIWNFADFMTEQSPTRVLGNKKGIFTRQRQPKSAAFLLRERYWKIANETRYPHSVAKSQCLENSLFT
Protocol: (§1) Plasmid pRESTB containing βG gene and a histidine tag at the N-terminus was constructed as described. Recombinant βG (human and E. coli) was produced by isopropyl β-D-thiogalactopyranoside (IPTG) induction of BL21 (DE3) bacteria. βG was purified from bacterial supernatants by affinity chromatography on nickels Sepharose 6 Fast Flow (GE Healthcare). The column was washed by phosphate-buffered saline (PBS), with 50 mM imidazole, and βG was eluted by PBS with 250 mM imidazole. The purified βG was desalted on a Sephadex G-25 column equilibrated with PBS and stored at −80°C.
(§2) The candidate compounds were purchased from SPECS (The Netherlands). Each candidate was provided as a solid power and dissolved in 100% DMSO (Sigma-Aldrich) to 10 mM as stock. Candidates were screened for their inhibition specificity of eβG versus hβG, which were conducted at pH 7.3 or pH 5.4, in triplicate, respectively. 40 μL purified βG was treated with 10 μL compound solution at 37°C for 30 min and sequentially incubated with 50 μL of pNPG (Sigma-Aldrich) at 37°C for 30 min. Reactions were quenched with 5 μL of 2 N sodium hydroxide (Sigma-Aldrich). Each reaction consisted of 3.75 ng purified βG, 50 μM compound, and 5 mM pNPG in PBS containing 10% DMSO and 0.05% BSA (Sigma-Aldrich). βG-activities were measured by color development of pNP detected on a microplate reader at OD 405 nm.
(Table S1) The candidate compounds were purchased from SPECS (Zoetermeer, The Netherlands). Each candidate was rovided as a solid power and dissolved in 100% DMSO (Sigma-Aldrich, MO, USA) to 10 mM as stock. Candidates were screening for their inhibition specificity of eβG verse hβG, which were conducted at pH 7.3 or pH 5.4 in triplicate, respectively. 40 µL purified βG was treated with 10 µL compound solution at 37 °C for 30 min, and sequentially incubated with 50 µL of pNPG (Sigma-Aldrich) at 37 °C for 30 min. Reactions were quenched with 5 µL of 2 N sodium hydroxide (Sigma-Aldrich). Each reaction consisted of 3.75 ng purified βG, 50 µM compound, and 5 mM pNPG in PBS containing 10% DMSO and 0.05% BSA (Sigma-Aldrich). βG-activities were measured by color development of pNP detected on a microplate reader at OD 405 nm. […]
candidate compounds were purchased from SPECS (Zoetermeer, The Netherlands). Each candidate was provided as a solid power and dissolved in 100% DMSO (Sigma-Aldrich, MO, USA) to 10 mM as stock. Candidates were screening for their inhibition specificity of eβG verse hβG, which were conducted at pH 7.3 or pH 5.4 in triplicate, respectively. 40 μL purified βG was treated with 10 μL compound solution at 37 °C for 30 min, and sequentially incubated with 50 μL of pNPG (Sigma-Aldrich) at 37 °C for 30 min. Reactions were quenched with 5 μL of 2 N sodium hydroxide (Sigma-Aldrich). Each reaction consisted of 3.75 ng purified βG, 50 μM compound, and 5 mM pNPG in PBS containing 10% DMSO and 0.05% BSA (Sigma-Aldrich). βG-activities were measured by color development of pNP detected on a microplate reader at OD 405 nm.

[1] = molecular target: T2, E. coli β-glucuronidase (eβG) (Escherichia coli, UniProt P05804); experiment: In vitro βG-activity assay (pNPG hydrolysis), eβG; format: biochemical; conditions: 50 μM compound, pH 7.3, percent of activity vs untreated control
T2 construct: histidine tag (N); made in house; host or cells: E. coli BL21 (DE3)
Protocol: as §1
as §2, with “nm. […] For IC50 determination, compounds at various concentrations (100 μM to 0.001 μM) were added.” for “nm.”
Supplementary file 740815.f1.pdf: Fifty-nine candidate compounds were acquired from the initial virtually screening which was designed to target the bacterial loop of eβG and its active site. The docking energy scores of 59 candidate compounds measured by the DOCK program are -43 to -55 kcal/mol. (Table S1) The candidate compounds were purchased from SPECS (Zoetermeer, The Netherlands). Each candidate was rovided as a solid power and dissolved in 100% DMSO (Sigma-Aldrich, MO, USA) to 10 mM as stock. Candidates were screening for their inhibition specificity of eβG verse hβG, which were conducted at pH 7.3 or pH 5.4 in triplicate, respectively. 40 µL purified βG was treated with 10 µL compound solution at 37 °C for 30 min, and sequentially incubated with 50 µL of pNPG (Sigma-Aldrich) at 37 °C for 30 min. Reactions were quenched with 5 µL of 2 N sodium hydroxide (Sigma-Aldrich). Each reaction consisted of 3.75 ng purified βG, 50 µM compound, and 5 mM pNPG in PBS containing 10% DMSO and 0.05% BSA (Sigma-Aldrich). βG-activities were measured by color development of pNP detected on a microplate reader at OD 405 nm. […] Especially, the inhibiting ability against eβG activity was >95% in 7 candidates of eβG specific inhibitors (Table S1).
Fifty-nine candidate compounds were acquired from the initial virtually screening which was designed to target the bacterial loop of eβG and its active site. The docking energy scores of 59 candidate compounds measured by the DOCK program are -43 to -55 kcal/mol. (Table S1) The candidate compounds were purchased from SPECS (Zoetermeer, The Netherlands). Each candidate was provided as a solid power and dissolved in 100% DMSO (Sigma-Aldrich, MO, USA) to 10 mM as stock. Candidates were screening for their inhibition specificity of eβG verse hβG, which were conducted at pH 7.3 or pH 5.4 in triplicate, respectively. 40 μL purified βG was treated with 10 μL compound solution at 37 °C for 30 min, and sequentially incubated with 50 μL of pNPG (Sigma-Aldrich) at 37 °C for 30 min. Reactions were quenched with 5 μL of 2 N sodium hydroxide (Sigma-Aldrich). Each reaction consisted of 3.75 ng purified βG, 50 μM compound, and 5 mM pNPG in PBS containing 10% DMSO and 0.05% BSA (Sigma-Aldrich). βG-activities were measured by color development of pNP detected on a microplate reader at OD 405 nm. […]
percent of βG activity compared with the untreated control.
Especially, the inhibiting ability against eβG activity was >95% in 7 candidates of eβG specific inhibitors (Table S1).
Table S1. […]

T2 sequence (P05804 whole entry): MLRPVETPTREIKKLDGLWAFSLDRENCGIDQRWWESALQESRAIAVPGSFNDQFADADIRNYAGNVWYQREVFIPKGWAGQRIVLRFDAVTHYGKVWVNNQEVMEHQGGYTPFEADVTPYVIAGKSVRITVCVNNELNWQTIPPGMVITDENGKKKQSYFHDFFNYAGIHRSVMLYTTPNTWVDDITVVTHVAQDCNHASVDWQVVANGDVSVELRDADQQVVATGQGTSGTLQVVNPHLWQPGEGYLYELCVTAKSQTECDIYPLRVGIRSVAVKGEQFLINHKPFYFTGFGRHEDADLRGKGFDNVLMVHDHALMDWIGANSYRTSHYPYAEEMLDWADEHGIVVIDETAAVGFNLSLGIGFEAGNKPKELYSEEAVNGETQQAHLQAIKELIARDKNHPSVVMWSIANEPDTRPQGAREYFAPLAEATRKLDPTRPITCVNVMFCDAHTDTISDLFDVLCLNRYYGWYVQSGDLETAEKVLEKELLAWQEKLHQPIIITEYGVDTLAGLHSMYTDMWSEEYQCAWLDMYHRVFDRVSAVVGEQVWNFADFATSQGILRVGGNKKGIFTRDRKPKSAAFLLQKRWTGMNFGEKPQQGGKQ

Compound | hβG activity (%) with 50 μM compound (human βG (hβG)) [%] | eβG activity (%) with 50 μM compound [1] [%]
CC(CNS(=O)(=O)c1ccc(Cl)cc1)n1cncn1 (stereo not drawn) [Compound 3379] | 102.56 | 31.70
O=C1SCCC1NS(=O)(=O)c1cc(Cl)ccc1Cl (stereo not drawn) [Compound 3927] | 106.86 | 18.73
Cc1ccc2c(c1)C1CN(C)CCC1N2C(=O)c1cc(Cl)ccc1[N+](=O)[O-] (stereo not drawn) [Compound 3959] | 105.45 | 42.88
CC1(C)CC(O)C(C(O)c2cccc([N+](=O)[O-])c2)C(C)(C)N1 (stereo not drawn) [Compound 4021] | 103.06 | 28.56
O=C(O)C1CC=CCC1C(=O)Nc1ccc2ccccc2c1 (stereo not drawn) [Compound 4043] | 81.24 | 32.98
O=C1C=C(Nc2cccc3cc(S(=O)(=O)O)ccc23)c2ccccc2C1=O [Compound 4277] | 115.21 | 44.37
O=C(O)c1ccc(NS(=O)(=O)c2ccc(Br)cc2)cc1O [Compound 4465] | 99.50 | 10.04
Cc1cc(NS(=O)(=O)c2ccc(NC(=O)c3cc(Cl)ccc3[N+](=O)[O-])cc2)nc(C)n1 [Compound 5003] | 105.54 | 17.02
N#Cc1cc2[nH]c(=O)c(=O)[nH]c2cc1[N+](=O)[O-] [Compound 5012] | 108.51 | 14.96
Cn1c(O)c(C=NC(Cc2c[nH]c3ccccc23)C(=O)O)c(=O)n(C)c1=O (stereo not drawn) [Compound 5033] | 116.12 | 9.33
O=C(O)C1CC=CCC1C(=O)Nc1ccc(Br)c2cccnc12 (stereo not drawn) [Compound 5244] | 44.38 | 26.21
CC1=C(C)CC(C(=O)Nc2c(C)cccc2C)C(C(=O)O)C1 (stereo not drawn) [Compound 5259] | 106.20 | 34.05
N/C(=N\c1nc2c(c(=O)[nH]1)CCC2)Nc1ccccc1 [Compound 5905] | 104.96 | 24.93
CC1=NN(c2ccc(Cl)cc2)C(=O)/C1=C\N1CCN(C)CC1 [Compound 6003] | 93.06 | 9.76
N=c1c2sc3nc4ccccc4n3c2ncn1N [Compound 6015] | 72.07 | 10.40
O=C(NC(NCc1ccco1)C(Cl)(Cl)Cl)c1ccc(Br)cc1 (stereo not drawn) [Compound 6019] | 104.96 | 33.83
COc1cc(C(=O)N2CCNCC2)cc(OC)c1OC [Compound 6368] | 116.03 | 44.87
O=C(Nc1ccc(S(=O)(=O)N2CCCC2)cc1)c1[nH]ncc1[N+](=O)[O-] [Compound 6843] | 108.76 | 27.49
COc1ccc(N2C(=O)CC(NC3CCCCNC3=O)C2=O)cc1 (stereo not drawn) [Compound 7007] | 105.79 | 44.30
N=C1C(c2nc3ccccc3c(=O)[nH]2)=C(O)CN1c1cccc(Cl)c1 [Compound 7036] | 95.45 | 6.70
CC(=O)Nc1ccc(S(=O)(=O)Oc2ccc([N+](=O)[O-])cc2)cc1 [Compound 7100] | 112.56 | 20.58
